Assay results reported in patent US5098916A, “Propanobicyclic amine derivatives for CNS disorders” (G. D. Searle & Co., priority 1990, dated 1992).

How the values were obtained:
sigma receptor = test: Radioreceptor assay: sigma receptor, displacement of [^3 H]-3-(+)-PPP; assay type: binding, male Sprague-Dawley rats; details: units ± SEM; rat brain crude membranes; 2 nM [^3 H]-(+)-3-PPP; 1 hr incubation at room temperature; pH 7.4; read-out: Ki apparent
Description: To determine the effects of the compounds in a sigma receptor assay, crude membrane preparations were prepared as follows. Brains from male Sprague-Dawley rats were homogenized in 10 volumes (wt/vol) of 0.32M sucrose, using a Polytron grinder. The homogenate was centrifuged at 900×G for 10 minutes at 4° C. The supernatant was collected and centrifuged at 22,000×g for 20 minutes at 4° C. The pellet was resuspended in 10 volumes of 50 mM Tris/HCl buffer (pH 7.4) and centrifuged at 22,000×g for 20 minutes at 4° C. The pellet was resuspended in 5 mM Tris/HCl buffer (pH 7.4) to give a final concentration of 250 mg/ml of the crude material. Incubation tubes were prepared in triplicate and contained 0.1 ml of tissue suspension, 2 nM of [^3 H]-(+)-1-propyl-3-(3-hydroxyphenyl)piperidine [^3 H]-3-(+)-PPP, and varying concentrations of the displacing ligand (0.1-1,000 nM) in a final volume of 0.5 ml. After a 1 hr incubation at room temperature, the contents of the test tubes were filtered through GS filter paper which had been presoaked for at least 2 hours in 0.05% polyethyleneimine. The test tubes were rinsed three times with Tris/HCl buffer. Radioactivity on the filters was determined using liquid scintillation spectrometry and inhibition curves were calculated according to the method of Cheng and Prusoff [Biochem. Pharmacol., 22, 3099-3108 (1973)].

[1] = Blockade of agonist (N-allylnormetazocine)-induced stereotyped behavior and ataxia; assay type: in vivo; details: 1 mg/kg i.p. test compound; 15 mg/kg i.p. N-allylnormetazocine
Description: Compounds of the invention were evaluated for their ability to block the effects of N-allylnormetazocine on the induction of stereotyped behavior and ataxia. To test for antagonism, drugs are administered at varying times before i.p. administration of 15 mg/kg of N-allylnormetazocine. Behavioral and ataxia ratings are taken at 2.5 minutes, 5 minutes, and every 5 minutes thereafter until the animal returns to control behavior. […] The lowest dose of the test compound which is capable of blocking the stereotyped behavior and ataxia induced by N-allylnormetazocine was determined.

Row | SMILES | Ki (sigma receptor) [nM] | block of N-allylnormetazocine-induced stereotyped behavior [1]
1 | c1ccc2c(c1)C1CCC2C(N2CCCCC2)CC1 (stereo not drawn) [Compound No. 1, exo- and endo-1-(2-Benzobicyclo[3.2.2]nonenyl)piperidine] | 6 ± 1 | fully blocked
2 | c1ccc2c(c1)C1CCC2C(N2CCCCC2)CC1 (stereo not drawn) [Compound No. 2, exo-1-(2-Benzobicyclo[3.2.2]nonenyl)piperidine] | 10 ± 2 | 
3 | c1ccc2c(c1)C1CCC2C(N2CCCCC2)CC1 (stereo not drawn) [Compound No. 3, endo-1-(2-Benzobicyclo[3.2.2]nonenyl)piperidine] | 150 ± 20 | 
4 | OCCN1CCN(C2CCC3CCC2c2ccccc23)CC1 (stereo not drawn) [Compound No. 4, endo- and exo-1-(2-Benzobicyclo[3.2.2]nonenyl)-4-(2-hydroxyethyl)piperazine] | 305 ± 20 | 
5 | CN1CCN(C2CCC3CCC2c2ccccc23)CC1 (stereo not drawn) [Compound No. 5] | 16000 ± 4000 | 
